Assay results: PubChem BioAssay (NCI)
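Interpolation was linear, between the two tested concentrations surrounding the appropriate level; five concentrations were tested over 48 hours in 96-well plates. Definition used: TGI = concentration required for complete inhibition of growth.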

System: P388/ADR leukemia
Assay: NCI tumour cell line growth inhibition, 48 h

SMILES: CN(C)CC1CCCC(CN(C)C)C1=O (stereo unspecified)
- TGI: 226 nM
